This note sets out measurements from US6844344B2, “Benzofuran derivatives” (Eli Lilly and Company, priority 1999, dated 2005).

Counter-ions that a name gives are not always drawn.

With `Cc1cc2c(OC[C@@H](O)CN3CC[C@@H](c4cc5cc(Cl)ccc5s4)C[C@@H]3C)cccc2o1` (as salt: salt) [Example 32, (2S)-3-[(2S,4R)-4-(5-Chlorobenzo[b]thiophen-2-yl)-2-methylpiperidin-1-yl]-1-(2-methylbenzofuran-4-yl)oxy-2-propanol], the melting point – broadly, the temperature, or range, at which the solid turns liquid – was 78.5 °C (dec.). On to `COc1cccc2sc([C@H]3CCN(C[C@H](O)COc4cccc5oc(C)cc45)[C@H](C)C3)cc12` (as salt: oxalate) [Example 29, (2S)-(+)-3-[(2R,4S)-4-(4-Methoxybenzo[b]thiophen-2-yl)-2-methylpiperidin-1-yl]-1-(2-methylbenzofuran-4-yl)oxy-2-propanol], for which the melting point is 92.5 °C (dec.).

`COc1cccc2sc([C@H]3CCN(C[C@H](O)COc4cccc5c4OC(C)(C)C5)[C@H](C)C3)cc12.O=C(O)C(=O)O` [Example 10, (2S)-1-(2,3-Dihydro-2,2-dimethylbenzofuran-7-yl)oxy-3-[(2R,4S)-4-(4-methoxybenzo[b]thiophen-2-yl)-2-methylpiperidinyl]-2-propanol Oxalate] gave a melting point of 93 to 96 °C.

As to `Cc1cc2c(OC[C@@H](O)CN3CC[C@H](c4cc5cc(Cl)ccc5s4)C[C@H]3C)cccc2o1` (as salt: salt) [Example 33, (2S)-(−)-3-[(2R,4S)-4-(5-Chloro-benzo[b]thiophen-2-yl)-2-methylpiperidin-1-yl]-1-(2-methylbenzofuran-4-yl)oxy-2-propanol], the melting point is 81.4 °C (dec.). For `COc1cccc2sc(C3CCN(C[C@H](O)COc4cccc5oc(C)cc45)C(C)(C)C3)cc12` (single isomer, unassigned; isomer 2) (as salt: hydrochloride) [Example 35] the value was 83.5 °C (dec.). For `COc1ccc2cc([C@H]3CCN(C[C@H](O)COc4cccc5occc45)[C@@H](C)C3)sc2c1.O=C(O)C(=O)O` [Example 3, (2S)-(+)-1-(Benzofuran-4-yl)oxy-3-[(2S.4S)-4-(6-methoxybenzo[b]thiophen-2-yl)-2-methylpiperidinyl]-2-propanol Oxalate] the value was 97 to 102 °C. `COc1cccc2sc([C@@H]3CCN(C[C@H](O)COc4cccc5oc(C)cc45)[C@H](C)C3)cc12` (as salt: oxalate) [Example 26, (2S)-(−)-3-[(2R,4R)-4-(4-Methoxybenzo[b]thiophen-2-yl)-2-methylpiperidin-1-yl]-1-(2-methylbenzofuran-4-yl)oxy-2-propanol] registered a melting point of 101.2 to 109.5 °C.

In the case of `COc1cccc2sc(C3CCN(C[C@H](O)COc4cccc5oc(C)cc45)C(C)(C)C3)cc12` (single isomer, unassigned; isomer 1) (as salt: hydrochloride) [Example 34], the melting point was 101.1 °C (dec.). In the case of `COc1cccc2sc([C@H]3CCN(C[C@H](O)COc4cccc5oc(C)cc45)[C@@H](C)C3)cc12` (as salt: oxalate) [Example 27, (2S)-(+)-3-[(2S,4S)-4-(4-Methoxybenzo[b]thiophen-2-yl)-2-methylpiperidin-1-yl]-1-(2-methylbenzofuran-4-yl)oxy-2-propanol] it was 98 °C (dec.). For `COc1ccc2cc([C@@H]3CCN(C[C@H](O)COc4cccc5occc45)[C@H](C)C3)sc2c1.O=C(O)C(=O)O` [Example 2, (2S)-(−)-1-(Benzofuran-4-yl)oxy-3-[(2R,4R)-4-(6-methoxybenzo[b]thiophen-2-yl)-2-methylpiperidinyl]-2-propanol Oxalate] the value was 97 to 102 °C (dec.); for `O=C(O)C(=O)O.O[C@H](COc1cccc2occc12)CN1CCC(c2cc3ccc(F)cc3s2)CC1` [Example 6, (2S)-(+)-1-(Benzofuran-4-yl)oxy-3-[4-(6-fluorobenzo[b]thiophen-2-yl)piperidinyl]-2-propanol Oxalate], 196 to 198 °C (dec.).

Take `COc1cccc2sc([C@@H]3CCN(C[C@H](O)COc4cccc5c4OC(C)(C)C5)[C@@H](C)C3)cc12.O=C(O)C(=O)O` [Example 9, (2S)-1-(2,3-Dihydro-2,2-dimethylbenzofuran-7-yl)oxy-3-[(2S,4R)-4-(4-methoxybenzo[b]thiophen-2-yl)-2-methylylpiperidinyl]-2-propanol Oxalate]: the melting point was in the range of 83 to 86 °C. For `COc1cccc2sc([C@@H]3CCN(C[C@H](O)COc4cccc5c4OC(C)(C)C5)[C@H](C)C3)cc12.O=C(O)C(=O)O` [Example 7, (2S)-(−)-1-(2,3-Dihydro-2,2-dimethylbenzofuran-7-yl)oxy-3-[(2R,4R)-4-(4-methoxybenzo[b]thiophen-2-yl)-2-methylpiperidinyl]-2-propanol Oxalate] the value was 88 to 93 °C; for `COc1ccc2cc([C@@H]3CCN(C[C@H](O)COc4cccc5occc45)[C@@H](C)C3)sc2c1.O=C(O)C(=O)O` [Example 4, (2S)-1-(Benzofuran-4-yl)oxy-3-[(2S,4R)-4-(6-methoxybenzo[b]thiophen-2-yl)-2-methylpiperidinyl]-2-propanol Oxalate], 130 to 133 °C.

For the molecule `Cc1cc2c(OC[C@@H](O)CN3CC[C@H](c4cc5cc(Cl)ccc5s4)C[C@@H]3C)cccc2o1` (as salt: salt) [Example 31, (2S)-3-[(2S,4S)-4-(5-Chlorobenzo[b]thiophen-2-yl)-2-methylpiperidin-1-yl]-1-(2-methylbenzofuran-4-yl)oxy-2-propanol], the melting point fell in the range of 204.1 to 208.3 °C. As to `Cc1cc2c(OC[C@@H](O)CN3CC[C@@H](c4cc5cc(Cl)ccc5s4)C[C@H]3C)cccc2o1` (as salt: salt) [Example 30, (2S)-(−)-3-[(2R,4R)-4-(5-Chlorobenzo[b]thiophen-2-yl)-2-methylpiperidin-1-yl]-1-(2-methylbenzofuran-4-yl)oxy-2-propanol], the melting point is 88.5 °C (dec.).

In turn, `COc1cccc2sc(C3CCN(C[C@H](O)COc4cccc5c4OC(C)(C)C5)[C@@H](C)C3)cc12.O=C(O)C(=O)O` (stereo in doubt) [Example 8, (2S)-(+)-1-(2,3-Dihydro-2,2-dimethylbenzofuran-7-yl)oxy-3-[(2S, 4R)-4-(4-methoxybenzo[b]thiophen-2-yl)-2-methylpiperidinyl]-2-propanol Oxalate] returned a melting point of 145 to 148 °C.

On to `COc1cccc2sc([C@@H]3CCN(C[C@H](O)COc4cccc5oc(C)cc45)[C@@H](C)C3)cc12` (as salt: oxalate) [Example 28, (2S)-(−)-3-[(2S,4R)-4-(4-Methoxybenzo[b]thiophen-2-yl)-2-methylpiperidin-1-yl]-1-(2-methylbenzofuran-4-yl)oxy-2-propanol], for which the melting point lay within 99.2 to 103 °C.
